Assay results as given in patent US4049829A, “Sulphur containing hydroxy aliphatic compounds” (Societe anonyme dite: Laboratoire L. Lafon, priority 1974, dated 1977).
Counter-ions that a name gives are not always drawn.

Tests used:
[1] = Experimental standard II: normal rats, five days oral treatment; assay type: in vivo, normal male Wistar rats; settings: oral dose of 20 mg/kg, vs untreated normal rats
Description: The hypolipaemiant properties of the CRL 40 122 have been studied in rats according to two different standard experiments: A study on normal Wistar rats (standard II). The experiment was carried out over five days on normal male Wistar rats. The animals, numbering 8 per dose of the product to be studied, were treated orally daily, the last feed taking place 3 hours before the animals were killed. Each series was divided into two groups of animals: one group killed after 3 days of experiment; the other group killed after 5 days of experiment. The results were determined by comparison with 8 normal rats subjected to the same experimental conditions and not treated.

[2] = Overall activity from both experimental standards I and II; assay type: in vivo, Wistar rats; settings: for product activity: of the order of
Description: The hypolipaemiant properties of the CRL 40 122 have been studied in rats according to two different standard experiments:
The experiment was conducted for two weeks on Wistar rats, subjected to a daily hyperlipidic diet at the dose of about 20 g for an animal of 150 g in average.
The activity of the product studied was determined by comparison with normal control groups of rats and with groups of rats subjected to a hyperlipidic diet and not treated. For each dose of CRL 40 122 there were three groups of five animals each (control group, group only receiving the hyperlipidic diet, and treated group). The results obtained correspond to the average of each of the series. A very interesting activity of CRL 40 122 appeared at active doses of 10 mg to 50 mg/kg in rats subjected to a hyperlipidic diet (decrease from 64 to 34% of the rate of blood lipids according to dose; decrease of cholesterol from 68 to 41%).
The experiment was carried out over five days on normal male Wistar rats. The animals, numbering 8 per dose of the product to be studied, were treated orally daily, the last feed taking place 3 hours before the animals were killed. Each series was divided into two groups of animals: one group killed after 3 days of experiment; the other group killed after 5 days of experiment.
The results were determined by comparison with 8 normal rats subjected to the same experimental conditions and not treated.
Overall these tests led to the following conclusions:
1. The two experimental standards, although very different give rise to a product activity of the order of: […]

mice = experiment: Acute toxicity by oral dose, mice; assay type: in vivo
Source text: (§1) The product is not toxic. The experiments relating to acute toxicity by oral dose for mice and rats have given evidence that there is no mortality amongst animals treated up to a dose of 5 g/kg.

rats = experiment: Acute toxicity by oral dose, rats; assay type: in vivo; settings: up to a dose of 5 g/kg
Source text: as §1

[3] = Human therapeutics: patients suffering from hyperlipaemia and hypercholesterolaemia; assay type: in vivo
[4] = Solubility (stated with the preparation); assay type: physicochemical
[5] = Hypolipidic activity in rats on hyperlipidic diet (Table IV); assay type: in vivo; parameters: Burstein Test: unit not given here; settings: for Total Cholesterol / Total Lipids / Burstein Test, % inhibition / Total Cholesterol, % inhibition / Total Lipids, % inhibition / Burstein Test: Table IV; for Burstein Test, % inhibition / Total Cholesterol, % inhibition / Total Lipids, % inhibition: normal = 100%, hyperlipidic = 0%
Source text: In Table IV below the following results have been obtained.
A -- in rats receiving a normal diet (percentage inhibition = 100%);
B -- in rats receiving a hyperlipidic diet (percentage inhibition = 0%);
C -- in rats receiving the same hyperlipidic diet B with a daily dose of 0.1 g/kg of a reference normolipidemiant LIPAVLON [ethyl-2-(p-chlorophenoxy)-2-methylpropionate; International name: CLOFIBRATE];
D -- in rats receiving the same hyperlipidic diet B with a daily dose of 0.1 g/kg of a reference normolipidemiant ATHEROLIP [aluminium salt of 2-(p-chlorophenoxy)-2-methylpropionic acid];
E -- in rats receiving the same hyperlipidic diet B with a daily dose of 0.1 g/kg of a reference normolipidemiant, LL 1558 [1,10-bis(2-hydroxyethyl-thio)decane];
F -- in rats receiving the same hyperlipidic diet B with a daily dose 0.010 g/kg, 0.025 g/kg or 0.050 g/kg of CRL 40046.
The averages of the tests effected on CRL 40 055 in three different doses and calculated comparatively to reference products corresponding to various experiments allow an activity of the product to be concluded as follows: […]

[6] = total dose of 400 mg per day, capsules of 100 mg and 200 mg
[7] = first experiment, hyperlipidic diet + product 0,1g/kg daily
[8] = first experiment, hyperlipidic diet + product 0,050g/kg daily
[9] = second experiment, hyperlipidic diet + product 0,025g/kg daily
[10] = third experiment, hyperlipidic diet + product "010g/kg" daily
[11] = second experiment, hyperlipidic diet + product 0,1g/kg daily
[12] = third experiment, hyperlipidic diet + product 0,1g/kg daily

CC(CO)SCCCCCCCCCCSC(C)CO (racemic) [CRL 40 122, (±)-2,15-Dimethyl-3,14-dithia-1,16-hexadecanediol]
decrease in cholesterol [1]: 23% | decrease in total lipids [1]: 31% | appearance of activity (onset) [2]: after the third day of treatment | product activity ([2]; dose of 10 mg/kg): ~20% | product activity ([2]; dose of 20 mg/kg): ~30% | product activity ([2]; dose of 50 mg/kg): ~60% | toxicity (in words) (mice; acute oral, mice and rats): not toxic | mortality (mice; oral, mice, up to a dose of 5 g/kg): no mortality | mortality (rats): no mortality | use in human therapeutics (in words) ([3]; capsules dosed at 100 mg and at 200 mg): used with success | hypercholesterolaemia [3, 6]: decrease after several days of treatment | hyperlipaemia [3, 6]: decrease after several days of treatment | solubility in water [4]: insoluble

CC(C)(Oc1ccc(Cl)cc1)C(=O)O [Atherolip, aluminium salt of 2-(p-chlorophenoxy)-2-methylpropionic acid]
Total Cholesterol [5, 7]: 2.08 g/L | Total Lipids [5, 7]: 6.8 g/L | Burstein Test, % inhibition [5, 7]: 67% | Total Cholesterol, % inhibition [5, 7]: 59% | Total Lipids, % inhibition [5, 7]: 49%

CC(C)(CO)SCCCCCCCCCCSC(C)(C)CO [CRL 40 055, 2,2,15,15-Tetramethyl-3,14-dithia-1,16-hexadecanediol]
Burstein Test [5, 8]: 64 | Total Cholesterol [5, 8]: 2.29 g/L | Total Lipids [5, 8]: 7.45 g/L | Burstein Test, % inhibition [5, 8]: 58% | Total Cholesterol, % inhibition [5, 8]: 51% | Total Lipids, % inhibition [5, 8]: 41% | Burstein Test [5, 9]: 82 | Total Cholesterol [5, 9]: 2.43 g/L | Total Lipids [5, 9]: 8.06 g/L | Burstein Test, % inhibition [5, 9]: 30% | Total Cholesterol, % inhibition [5, 9]: 53% | Total Lipids, % inhibition [5, 9]: 37% | Total Cholesterol [5, 10]: 3.81 g/L | Total Lipids [5, 10]: 11.3 g/L | Burstein Test, % inhibition [5, 10]: 0% | Total Cholesterol, % inhibition [5, 10]: 0% | Total Lipids, % inhibition [5, 10]: 0% | activity (in words) ([5]; dose of 0.010 g/kg): the activity appears to have completely disappeared | activity as compared with the reference products (in words) ([5]; dose of 0.025 g/kg vs reference products at 0.1 g/kg): substantially constant activity as compared with the reference products | solubility in water [4]: insoluble

OCCSCCCCCCCCSCCO [CRL 40 077, 1,8-Bis(2-hydroxyethyl-thio)-octane]
solubility in alcohol [4]: soluble | solubility in water [4]: insoluble

OCCSCCCCCCSCCO [CRL 40 085, 1,6-Bis(2-hydroxyethyl-thio)-hexane]
solubility in alcohol [4]: soluble | solubility in water [4]: insoluble

OCCSCCCCCCCCCSCCO [CRL 40 116, 1,9Bis(2-hydroxyethylthio)-nonane]
solubility in alcohol [4]: soluble | solubility in water [4]: insoluble

OCCSCCCCCCCSCCO [CRL 40 120, 1,7-Bis(2-hydroxyethyl-thio)-heptane]
solubility in alcohol [4]: soluble | solubility in water [4]: insoluble

OCC(O)CSCCCCCCCCCCSCC(O)CO (centres unmarked) [CRL 40 155, 1,10-Bis(2,3-dihydroxypropyl-thio)decan]
solubility in water [4]: insoluble

OCCC(CO)SCCCCCCCCCCSC(CO)CCO (centres unmarked) [CRL 40 176, 1,18-Dihydroxy-3,16-di(hydroxymethylene)-4,15-dithia-octadecane]
solubility in water [4]: insoluble

CC(CO)SCCCCCCCCCSC(C)CO (centres unmarked) [CRL 40 193, 2,14-Dimethyl-3,13-dithia-1,15-pentadecanediol]
solubility in water [4]: insoluble

OCCSCCCCCCCCCCCSCCO [CRL 40 194, 1,11-Bis-(2-hydroxyethyl-thio)-undecane]
solubility in water [4]: insoluble

OCCSCCCCCCCCCCSCCO [LL 1558, 1,10-bis(2-hydroxyethyl-thio)decane]
Burstein Test [5, 11]: 38 | Total Cholesterol [5, 11]: 1.33 g/L | Total Lipids [5, 11]: 5.1 g/L | Burstein Test, % inhibition [5, 11]: 87% | Total Cholesterol, % inhibition [5, 11]: 85% | Total Lipids, % inhibition [5, 11]: 82% | Burstein Test [5, 12]: 37 | Total Cholesterol [5, 12]: 1.33 g/L | Total Lipids [5, 12]: 4.5 g/L | Burstein Test, % inhibition [5, 12]: 85% | Total Cholesterol, % inhibition [5, 12]: 70% | Total Lipids, % inhibition [5, 12]: 77%

CCOC(=O)C(C)(C)Oc1ccc(Cl)cc1 [Lipavlon, ethyl-2-(p-chlorophenoxy)-2-methylpropionate]
Total Cholesterol [5, 7]: 2.47 g/L | Total Lipids [5, 7]: 7.75 g/L | Burstein Test, % inhibition [5, 7]: 49% | Total Cholesterol, % inhibition [5, 7]: 46% | Total Lipids, % inhibition [5, 7]: 37% | Total Cholesterol [5, 11]: 3 g/L | Total Lipids [5, 11]: 9.2 g/L | Burstein Test, % inhibition [5, 11]: 27% | Total Cholesterol, % inhibition [5, 11]: 36% | Total Lipids, % inhibition [5, 11]: 20% | Total Cholesterol [5, 12]: 1.58 g/L | Total Lipids [5, 12]: 7.3 g/L | Burstein Test, % inhibition [5, 12]: 25% | Total Cholesterol, % inhibition [5, 12]: 60% | Total Lipids, % inhibition [5, 12]: 22%
